This is an account of results in ChEMBL document CHEMBL4118098, “Discovery of DS28120313 as a potent orally active hepcidin production inhibitor: Design and optimization of novel 4,6-disubstituted indazole derivatives” (Bioorg Med Chem Lett, 2017).

Structures are written as SMILES.

Usually IC50 stands for the midpoint of a concentration-inhibition curve.

The experiment has as its system HepG2. Nature of the experiment: Inhibition of human recombinant BMP6-stimulated hepcidin mRNA expression in human HepG2 cells after 6 hrs by qRT-PCR analysis. It counts as functional, cell-based. As to conditions: HepG2, 6 h.
Regarding `Cc1[nH]nc(C2CC2)c1-c1cc(N)c2cn[nH]c2c1`, the IC50 was 2.7 µM.

Turning to `COC(=O)Nc1cc(-c2c(C)n[nH]c2C)cc2[nH]ncc12`, the IC50 was determined as 0.15 µM.

As for `COC(=O)N(C)c1cc(-c2c(C3CC3)n[nH]c2C)cc2[nH]ncc12`, the IC50 came out at 3 µM.

As for `CCC(=O)Nc1cc(-c2c(C3CC3)n[nH]c2C)cc2[nH]ncc12`, the half-maximal inhibitory concentration (IC50) is 0.45 µM.

As to `COC(=O)Nc1cc(-c2c(C(C)C)n[nH]c2C)cc2[nH]ncc12`, the 50% inhibitory concentration (IC50) was found to be 0.19 µM.

`CC(=O)Nc1cc(-c2c(C3CC3)n[nH]c2C)cc2[nH]ncc12`: the IC50 is 0.19 µM.

Turning to `Cc1[nH]nc(C2CC2)c1-c1cc(NS(C)(=O)=O)c2cn[nH]c2c1`, the IC50 turned out to be 1.2 µM.

In the case of `Cc1[nH]nc(C2CC2)c1-c1cc(NC(=O)C2CC2)c2cn[nH]c2c1`, the IC50 was 1 µM.

Consider `Cc1[nH]nc(C2CC2)c1-c1ccc2c(-c3ccncc3)n[nH]c2c1`, for which the IC50 came to 2.6 µM.

On to `Cc1[nH]nc(C2CC2)c1-c1ccc2cn[nH]c2c1`, for which the 50% inhibitory concentration (IC50) came to 4.1 µM.

For the compound `COC(=O)Nc1cc(-c2c(-c3ccccn3)n[nH]c2C)cc2[nH]ncc12`, the IC50 worked out at 0.32 µM.

For `Cc1[nH]nc(C2CC2)c1-c1ccc2c(-c3cccnc3)n[nH]c2c1`, the IC50 was 2.3 µM.

Take `Cc1[nH]nc(C2CC2)c1-c1ccc2c(-c3ccc(N4CCNCC4)nc3)n[nH]c2c1`: the IC50 stood at 0.17 µM.

With `Cc1[nH]nc(C2CC2)c1-c1cc(NC(=O)c2ccc(N3CCN(C)CC3)cc2)c2cn[nH]c2c1`, the 50% inhibitory concentration (IC50) was 1.9 µM.

Take `CCOC(=O)Nc1cc(-c2c(C3CC3)n[nH]c2C)cc2[nH]ncc12`: the half-inhibitory concentration (IC50) was 0.66 µM.

With `CNC(=O)c1n[nH]c(C)c1-c1cc(NC(=O)OC)c2cn[nH]c2c1`, the 50% inhibitory concentration (IC50) stood at 2 µM.

As for `COC(=O)Nc1cc(-c2c(C(=O)O)n[nH]c2C)cc2[nH]ncc12`, the IC50 was > 10 µM.

Take `CC(=O)Nc1n[nH]c2cc(-c3c(C4CC4)n[nH]c3C)ccc12`: the IC50 amounted to 0.41 µM.

Turning to `COC(=O)Nc1cc(-c2c(-c3ccccc3)n[nH]c2C)cc2[nH]ncc12`, the IC50 amounted to 1.1 µM.

`CNC(=O)Nc1cc(-c2c(C3CC3)n[nH]c2C)cc2[nH]ncc12`: the IC50 was determined as 0.34 µM.

For `CNC(=O)c1cc(-c2c(C3CC3)n[nH]c2C)cc2[nH]ncc12`, the half-maximal inhibitory concentration (IC50) came out at 2.2 µM.

Take `Cc1[nH]nc(C2CC2)c1-c1ccc2c(-c3ccc[nH]3)n[nH]c2c1`: the IC50 was 3.1 µM.

Consider `COC(=O)Nc1cc(-c2c(C(=O)OC)n[nH]c2C)cc2[nH]ncc12`, for which the 50% inhibitory concentration (IC50) amounted to 0.13 µM.

On to `COCc1n[nH]c(C)c1-c1cc(NC(=O)OC)c2cn[nH]c2c1`, for which the IC50 came to 3.9 µM.

For the compound `CCc1n[nH]c(C)c1-c1cc(NC(=O)OC)c2cn[nH]c2c1`, the 50% inhibitory concentration (IC50) was 0.18 µM.
